The record followed here is the kinase profiling compilation of Christmann-Franck et al. (2016).

Some targets named below: NEK7 (human) (UniProt Q8TDX7); SRPK1 (human) (UniProt Q96SB4); CDK11B (human) (UniProt P21127); PLK1 (human) (UniProt P53350); FYN (human) (UniProt P06241); ADCK4 (human) (UniProt Q96D53); CAMK1D (human) (UniProt Q8IU85); CSK (human) (UniProt P41240); RPS6KA4 KD1 (human) (UniProt O75676); MARK1 (human) (UniProt Q9P0L2); CAMK2A (human) (UniProt Q9UQM7); CHEK2 (human) (UniProt O96017); ABL2 (human) (UniProt P42684); AKT2 (human) (UniProt P31751); ABL1 (human) (UniProt P00519); EIF2AK2 (human) (UniProt P19525); TNNI3K (human) (UniProt Q59H18); LTK (human) (UniProt P29376); PAK3 (human) (UniProt O75914); EPHA6 (human) (UniProt Q9UF33); CSNK1A1L (human) (UniProt Q8N752); ERBB2 (human) (UniProt P04626); PAK4 (human) (UniProt O96013); CDK8 (human) (UniProt P49336); EPHA5 (human) (UniProt P54756); CAMK1 (human) (UniProt Q14012); LATS1 (human) (UniProt O95835); MAP4K5 (human) (UniProt Q9Y4K4); STK25 (human) (UniProt O00506); DCLK1 (human) (UniProt O15075); WEE1 (human) (UniProt P30291); TGFBR1 (human) (UniProt P36897); PKN1 (human) (UniProt Q16512); RPS6KA1 KD1 (human) (UniProt Q15418); MST1R (human) (UniProt Q04912); MAPK6 (human) (UniProt Q16659); PTK2B (human) (UniProt Q14289); YES1 (human) (UniProt P07947).

Holding throughout (experiment): KINOMEscan competition binding
Holding throughout (details): compound 10.0 µM

Test [1] has as its system EGFR (human), P00533 [L861Q].
Test [2] deals with JAK1 JH1 catalytic (human) (UniProt P23458).
Test [3] relates to EGFR (human), P00533 [P753S; 747-752 del].

SRPK1 (human), sequence (Q96SB4 whole entry, looked up): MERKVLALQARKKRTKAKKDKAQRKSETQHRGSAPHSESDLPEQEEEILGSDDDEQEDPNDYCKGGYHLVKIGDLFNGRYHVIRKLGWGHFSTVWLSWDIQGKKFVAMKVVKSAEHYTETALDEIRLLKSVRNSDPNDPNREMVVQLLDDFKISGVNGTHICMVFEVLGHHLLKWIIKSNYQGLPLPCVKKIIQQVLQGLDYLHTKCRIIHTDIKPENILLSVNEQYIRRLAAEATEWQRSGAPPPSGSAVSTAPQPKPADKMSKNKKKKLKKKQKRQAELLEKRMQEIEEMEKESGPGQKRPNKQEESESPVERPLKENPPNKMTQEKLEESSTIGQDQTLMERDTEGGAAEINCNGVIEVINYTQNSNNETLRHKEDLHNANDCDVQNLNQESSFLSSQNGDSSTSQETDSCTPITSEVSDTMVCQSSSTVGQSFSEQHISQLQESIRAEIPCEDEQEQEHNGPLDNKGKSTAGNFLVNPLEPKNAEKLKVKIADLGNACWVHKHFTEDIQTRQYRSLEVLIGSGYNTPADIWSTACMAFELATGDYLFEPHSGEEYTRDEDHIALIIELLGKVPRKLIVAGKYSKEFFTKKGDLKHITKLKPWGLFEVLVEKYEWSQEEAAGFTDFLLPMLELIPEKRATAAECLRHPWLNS
PKN1 (human), sequence (Q16512 whole entry, looked up): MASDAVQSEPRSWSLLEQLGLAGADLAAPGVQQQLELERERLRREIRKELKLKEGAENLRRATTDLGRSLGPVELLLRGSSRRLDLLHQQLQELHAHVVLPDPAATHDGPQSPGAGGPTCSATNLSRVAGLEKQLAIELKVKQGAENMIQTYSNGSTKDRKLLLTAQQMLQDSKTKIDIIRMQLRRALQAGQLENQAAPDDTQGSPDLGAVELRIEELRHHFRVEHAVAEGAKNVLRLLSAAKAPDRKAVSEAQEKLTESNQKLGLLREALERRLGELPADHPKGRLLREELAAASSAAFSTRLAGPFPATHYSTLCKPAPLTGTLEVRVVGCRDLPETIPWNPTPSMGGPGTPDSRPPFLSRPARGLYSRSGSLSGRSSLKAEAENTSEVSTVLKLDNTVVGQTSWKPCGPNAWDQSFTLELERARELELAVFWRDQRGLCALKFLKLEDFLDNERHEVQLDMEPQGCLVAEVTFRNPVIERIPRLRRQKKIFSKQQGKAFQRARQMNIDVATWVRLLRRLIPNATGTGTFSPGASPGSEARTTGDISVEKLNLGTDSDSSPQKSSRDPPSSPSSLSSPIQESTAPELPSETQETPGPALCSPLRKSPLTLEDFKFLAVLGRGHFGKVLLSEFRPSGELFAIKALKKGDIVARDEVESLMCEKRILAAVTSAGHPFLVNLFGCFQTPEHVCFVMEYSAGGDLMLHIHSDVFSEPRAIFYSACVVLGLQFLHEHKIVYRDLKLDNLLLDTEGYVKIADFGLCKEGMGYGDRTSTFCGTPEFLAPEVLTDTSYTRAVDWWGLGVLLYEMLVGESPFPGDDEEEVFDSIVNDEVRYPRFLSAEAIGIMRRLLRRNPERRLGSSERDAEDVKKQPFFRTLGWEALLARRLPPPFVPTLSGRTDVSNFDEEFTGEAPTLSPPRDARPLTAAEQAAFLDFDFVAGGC
TGFBR1 (human), sequence (P36897 whole entry, looked up): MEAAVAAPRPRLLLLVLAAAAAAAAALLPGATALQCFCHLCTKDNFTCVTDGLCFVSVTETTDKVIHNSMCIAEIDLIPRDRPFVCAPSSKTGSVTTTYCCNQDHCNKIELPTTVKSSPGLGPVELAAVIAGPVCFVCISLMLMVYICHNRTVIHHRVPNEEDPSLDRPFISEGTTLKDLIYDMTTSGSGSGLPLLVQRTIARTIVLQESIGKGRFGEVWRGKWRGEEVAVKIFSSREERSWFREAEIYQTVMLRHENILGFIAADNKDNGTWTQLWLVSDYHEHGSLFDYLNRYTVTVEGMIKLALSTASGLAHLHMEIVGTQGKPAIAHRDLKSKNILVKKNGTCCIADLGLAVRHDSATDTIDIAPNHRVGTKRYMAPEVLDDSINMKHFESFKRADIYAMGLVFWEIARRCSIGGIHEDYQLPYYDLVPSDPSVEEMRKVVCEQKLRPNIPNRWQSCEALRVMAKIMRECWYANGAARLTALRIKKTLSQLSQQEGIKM
EIF2AK2 (human), sequence (P19525 whole entry, looked up): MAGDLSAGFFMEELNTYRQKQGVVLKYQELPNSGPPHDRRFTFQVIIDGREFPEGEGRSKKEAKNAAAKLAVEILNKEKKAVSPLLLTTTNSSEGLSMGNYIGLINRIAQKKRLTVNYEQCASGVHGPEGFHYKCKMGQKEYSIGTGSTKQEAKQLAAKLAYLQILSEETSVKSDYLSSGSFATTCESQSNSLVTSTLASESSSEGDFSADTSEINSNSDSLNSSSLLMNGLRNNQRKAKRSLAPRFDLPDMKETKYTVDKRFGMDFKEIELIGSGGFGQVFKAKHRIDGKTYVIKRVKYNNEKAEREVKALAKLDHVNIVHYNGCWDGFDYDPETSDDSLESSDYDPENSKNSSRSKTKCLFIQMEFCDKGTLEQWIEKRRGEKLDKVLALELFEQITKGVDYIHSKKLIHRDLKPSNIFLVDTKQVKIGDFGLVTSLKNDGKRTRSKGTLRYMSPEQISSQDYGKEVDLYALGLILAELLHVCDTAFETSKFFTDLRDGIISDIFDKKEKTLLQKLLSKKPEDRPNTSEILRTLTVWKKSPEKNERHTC
STK25 (human), sequence (O00506 whole entry, looked up): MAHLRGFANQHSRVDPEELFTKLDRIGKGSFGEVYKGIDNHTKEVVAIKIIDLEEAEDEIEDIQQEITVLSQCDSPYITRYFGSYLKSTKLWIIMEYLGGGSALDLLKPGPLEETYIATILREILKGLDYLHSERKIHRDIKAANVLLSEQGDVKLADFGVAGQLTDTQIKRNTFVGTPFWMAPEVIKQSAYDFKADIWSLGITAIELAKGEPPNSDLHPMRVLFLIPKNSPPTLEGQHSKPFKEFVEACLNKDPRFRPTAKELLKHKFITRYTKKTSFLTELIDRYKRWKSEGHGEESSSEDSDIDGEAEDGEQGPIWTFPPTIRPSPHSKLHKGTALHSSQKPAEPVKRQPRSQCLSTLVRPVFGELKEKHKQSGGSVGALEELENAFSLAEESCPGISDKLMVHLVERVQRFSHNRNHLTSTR
CAMK1D (human), sequence (Q8IU85 whole entry, looked up): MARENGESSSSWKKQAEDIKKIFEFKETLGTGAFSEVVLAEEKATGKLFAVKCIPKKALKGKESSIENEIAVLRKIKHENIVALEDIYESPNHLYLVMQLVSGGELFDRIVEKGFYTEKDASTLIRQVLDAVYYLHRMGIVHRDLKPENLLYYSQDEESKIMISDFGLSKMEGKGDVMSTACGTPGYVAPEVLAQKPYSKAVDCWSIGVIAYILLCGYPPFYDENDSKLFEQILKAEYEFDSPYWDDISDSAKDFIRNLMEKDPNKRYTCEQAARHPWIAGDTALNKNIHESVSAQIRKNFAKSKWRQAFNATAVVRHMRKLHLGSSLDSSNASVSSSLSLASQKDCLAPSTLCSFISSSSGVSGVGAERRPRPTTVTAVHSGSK
CAMK1 (human), sequence (Q14012 whole entry, looked up): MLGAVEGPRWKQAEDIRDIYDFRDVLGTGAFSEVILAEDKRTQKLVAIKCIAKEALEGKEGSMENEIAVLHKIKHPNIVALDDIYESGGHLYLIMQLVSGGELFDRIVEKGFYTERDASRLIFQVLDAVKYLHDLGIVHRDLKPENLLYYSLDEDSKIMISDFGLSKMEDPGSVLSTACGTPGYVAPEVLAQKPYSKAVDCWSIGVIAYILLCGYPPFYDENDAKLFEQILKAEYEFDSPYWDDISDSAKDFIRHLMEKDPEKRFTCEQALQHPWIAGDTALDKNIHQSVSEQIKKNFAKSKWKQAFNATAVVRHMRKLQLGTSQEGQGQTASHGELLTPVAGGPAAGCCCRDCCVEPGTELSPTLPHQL
NEK7 (human), sequence (Q8TDX7 whole entry, looked up): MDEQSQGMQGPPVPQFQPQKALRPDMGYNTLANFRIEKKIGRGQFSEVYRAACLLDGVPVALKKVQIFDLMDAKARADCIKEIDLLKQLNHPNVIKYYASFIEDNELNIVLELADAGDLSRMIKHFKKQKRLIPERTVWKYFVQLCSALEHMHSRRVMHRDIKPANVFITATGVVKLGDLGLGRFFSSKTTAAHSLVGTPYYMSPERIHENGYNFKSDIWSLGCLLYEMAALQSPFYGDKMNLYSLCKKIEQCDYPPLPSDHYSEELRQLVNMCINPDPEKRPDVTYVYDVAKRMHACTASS
PLK1 (human), sequence (P53350 whole entry, looked up): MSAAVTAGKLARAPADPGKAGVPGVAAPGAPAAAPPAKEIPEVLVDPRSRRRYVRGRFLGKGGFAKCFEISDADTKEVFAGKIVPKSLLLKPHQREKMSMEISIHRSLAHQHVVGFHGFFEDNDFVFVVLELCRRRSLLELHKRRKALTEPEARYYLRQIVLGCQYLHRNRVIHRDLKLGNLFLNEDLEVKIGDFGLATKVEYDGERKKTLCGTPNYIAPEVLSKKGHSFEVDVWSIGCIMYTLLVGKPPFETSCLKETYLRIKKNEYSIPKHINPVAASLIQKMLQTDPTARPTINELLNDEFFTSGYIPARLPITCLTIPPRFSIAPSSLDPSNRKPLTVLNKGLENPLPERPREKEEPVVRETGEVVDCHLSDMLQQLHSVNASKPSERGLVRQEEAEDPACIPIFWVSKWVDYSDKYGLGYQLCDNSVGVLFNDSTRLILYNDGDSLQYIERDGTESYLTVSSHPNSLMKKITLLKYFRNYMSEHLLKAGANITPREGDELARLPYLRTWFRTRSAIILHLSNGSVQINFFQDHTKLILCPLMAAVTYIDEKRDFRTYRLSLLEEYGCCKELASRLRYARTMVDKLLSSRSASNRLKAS

On to `COc1cc(N2CCN(C)CC2)ccc1Nc1ncc2c(n1)Nc1ccccc1NC2=O`, for which the kinase still bound, per cent of control on NEK7 (human) amounted to 70%; at SRPK1 (human), 100%; at CDK11B (human) it was 100%; on PLK1 (human) it was 99%; on FYN (human), 98%; on ADCK4 (human), 84%. Moreover, the kinase still bound, per cent of control stood at 100% at CAMK1D (human); 100% on CSK (human); 100% at RPS6KA4 KD1 (human); 100% at MARK1 (human); 61% in test [1]; 50% in test [2]. Also, the kinase still bound, per cent of control in test [3] worked out at 39%; on CAMK2A (human), 90%; on CHEK2 (human) it was 84%; on ABL2 (human), 79%; at AKT2 (human), 100%; at ABL1 (human), 24%. For the same compound, the kinase still bound, per cent of control at EIF2AK2 (human) amounted to 59%; at TNNI3K (human), 87%; at LTK (human), 72%; at PAK3 (human) it was 82%; at EPHA6 (human), 100%; on CSNK1A1L (human), 100%. Besides, the kinase still bound, per cent of control turned out to be 5% on ERBB2 (human); 94% on PAK4 (human); 55% at CDK8 (human); 90% on EPHA5 (human); 100% on CAMK1 (human); 90% on LATS1 (human). The kinase still bound, per cent of control stood at 98% on MAP4K5 (human); 84% at STK25 (human); 59% on DCLK1 (human); 86% on WEE1 (human); 79% on TGFBR1 (human); 69% on PKN1 (human). For the same compound, the kinase still bound, per cent of control was 96% at RPS6KA1 KD1 (human); 100% on MST1R (human); 100% on MAPK6 (human); 99% at PTK2B (human); 68% on YES1 (human).

The compound `N=C1NC(=O)/C(=C/c2ccc(-c3ccc(C(N)=O)cc3O)o2)S1` gave a kinase still bound, per cent of control at CAMK2A (human) of 28%.

Compound `N=C1NC(=O)/C(=C/c2ccc(-c3csc4ccccc34)o2)S1` registered a kinase still bound, per cent of control at NEK7 (human) of 33%.

For `CN1C(=O)[C@H]2CCC[C@H]2N(C2CCCC2)c2nc(Nc3ccc(C(N)=O)cc3)ncc21`, the kinase still bound, per cent of control on PLK1 (human) came out at 0.65%; on DCLK1 (human), 5.8%; on PKN1 (human), 30%; at RPS6KA1 KD1 (human), 11%.

Take `CS(=O)(=O)Nc1ccc(-c2cncc(/C=C3\SC(=N)NC3=O)c2)cc1`: the kinase still bound, per cent of control on SRPK1 (human) came out at 11%; at ABL1 (human), 34%; on CSNK1A1L (human), 21%; at MAP4K5 (human), 12%; at TGFBR1 (human), 16%.

The compound `N=C1NC(=O)/C(=C/c2ccc(-c3ccc(F)cc3O)o2)S1` registered a kinase still bound, per cent of control at SRPK1 (human) of 25%.

On to `Nc1cccc(-c2cc(/C=C3\SC(=O)NC3=O)c[nH]c2=O)c1`, for which the kinase still bound, per cent of control at PLK1 (human) worked out at 1.8%; in [3] it was 16%.

With `O=C1NC(=S)S/C1=C\c1ccc(-c2cncc3ccccc23)o1`, the kinase still bound, per cent of control at NEK7 (human) was 17%; at CAMK1D (human), 28%; at CSK (human) it was 33%; on CAMK2A (human), 22%; on CHEK2 (human), 14%; at EIF2AK2 (human), 23%. Also, the kinase still bound, per cent of control at LTK (human) amounted to 13%; at CDK8 (human) it was 10%; on CAMK1 (human) it was 27%; on STK25 (human) it was 20%.

In turn, `CSC1=NC(=O)/C(=C/c2c[nH]c(=O)c(-c3ccc(NS(C)(=O)=O)cc3)c2)S1` had a kinase still bound, per cent of control at PLK1 (human) of 17%.

Turning to `N=C1NC(=O)/C(=C/c2ccc(-c3cncc4ccccc34)o2)S1`, the kinase still bound, per cent of control at NEK7 (human) was determined as 15%; at SRPK1 (human), 15%; at CAMK1D (human), 9%; at CSK (human) it was 12%; at RPS6KA4 KD1 (human), 15%; on CAMK2A (human), 10%. Besides, the kinase still bound, per cent of control on CHEK2 (human) turned out to be 33%; at EIF2AK2 (human), 25%; at PAK4 (human) it was 18%; at CDK8 (human), 11%; on CAMK1 (human), 8.4%; at STK25 (human) it was 18%. Also, the kinase still bound, per cent of control on TGFBR1 (human) was found to be 34%; on PKN1 (human) it was 28%; at RPS6KA1 KD1 (human), 30%.

As to `CS(=O)(=O)Nc1ccc(-c2ncc(/C=C3\SC(=N)NC3=O)s2)cc1`, the kinase still bound, per cent of control on ABL1 (human) worked out at 27%.

Take `CS(=O)(=O)Nc1ccc(-c2cc(/C=C3\SC(=N)NC3=O)c[nH]c2=O)cc1`: the kinase still bound, per cent of control on TGFBR1 (human) was determined as 24%.
